Measurements: publication PMC7466159, “Anti-Metastasis Fascin Inhibitors Decrease the Growth of Specific Subtypes of Cancers” (Cancers, 2020)
Read-outs that look alike come from different tables or passages of the source.

Experiments:
[1] = system: 4T1 mouse triple-negative breast cancer cells; settings: for inhibition of lung metastasis / IC50, metastasized 4T1 cells in the lungs: BALB/c mice, oral; for IC50, metastasized 4T1 cells in the lungs: Day 7 to Day 27
Procedure: In the second orthotopic spontaneous tumor metastasis mouse model, 4T1 mouse triple-negative breast cancer cells were injected into the mammary gland of BALB/c mice, and then the metastasis to the lung was monitored (Figure 2D,E). The 4T1 mouse tumor closely mimics human breast cancer in its anatomical site, immunogenicity, growth characteristics, and metastatic properties. From the mammary gland, the 4T1 tumor spontaneously metastasizes to a variety of target organs including lung, bone, brain, and liver. Seven days after the implantation of 4T1 tumor cells, we orally administered the mice with different concentrations of NP-G2-044 either once a day or twice a day for six days a week. After 28 days, the mice were sacrificed and examined for metastasis in the lungs.
Female BALB/c mice (6- to 8-week old) were purchased from Charles River Labs. The 4T1 tumor cells (1 × 10^5) were injected subcutaneously into the abdominal mammary gland area of mice using 0.1 mL of a single-cell suspension in PBS-matrigel (v/v, 1:1) on Day 0 as previously described. […] On Day 28, the mice were sacrificed. […] The numbers of metastatic 4T1 cells in lungs were determined by a clonogenic assay. In brief, the lungs were removed from each mouse, finely minced and digested in 5 mL of an enzyme cocktail containing 1 × PBS and 1 mg/mL collagenase type IV for 2 h at 37 ℃ on a platform rocker. After incubation, samples were filtered through 70-µm nylon cell strainers and washed twice with PBS. The resulting cells were suspended and plated with a series of dilutions in 10-cm tissue culture dishes in DMEM medium containing 60 µM thioguanine for clonogenic growth. As 4T1 tumor cells are resistant to 6-thioguanine, the metastasized tumor cells formed foci after 14 days, at which time they were fixed with 4% paraformaldehyde and stained with crystal violet staining solution for counting. For the experiments in Figure 2F,G, 4T1 tumor cells (1 × 10^5) suspended in PBS-matrigel (v/v, 1:1) were injected subcutaneously into the abdominal mammary gland area of mice on day 0. Starting on Day 3, NP-G2-044 was given to mice once every day by oral gavage at 100 mg kg^−1 per mouse. A vehicle solvent was given to the control group of mice once every day by gavage. Starting on Day 7, paclitaxel was given to mice twice a week by an intraperitoneal injection at 20 mg kg^−1 per mouse for two weeks. Primary tumors were removed on Day 14. All mice were killed for a clonogenic assay on Day 32.

Ly10 cells = assay: Soft-agar colony formation assay, Ly10; type: cell-based; settings: 14 days, dosage-dependent
Procedure: (§1) A total of 1 × or 2 ×10^4 cells were suspended in 0.5 mL of 0.3% low melting point agar (Merck KGaA, Darmstadt, Germany) in RPMI-1640 or DMEM containing 10% FBS and control solvent or the inhibitors. This suspension was overlaid on pre-solidified with 0.6% agar in the same medium in 24-well plates as previously described. Normal growth medium containing control solvent or the inhibitors was gently layered over the cultures every 4 days for 14 days. The colonies were stained with 0.1% crystal violet for 1 h at room temperature and counted under a microscope.

HT cells = assay: Soft-agar colony formation assay, HT; type: cell-based; settings: 14 days, dosage-dependent
Procedure: as §1

[2] = Stability in plasma samples during bioanalysis; type: physicochemical; settings: after freeze-thaw, and during storage, processing and analysis
Procedure: The concentrations of NP-G2-044 in plasma were determined using high performance liquid chromatography with tandem mass spectrometry (LC-MS/MS). All blood samples were transferred into a commercial tube containing potassium (K2) EDTA (ethylene diaminetetraacetic acid) and were processed for plasma. Samples were centrifuged (3000× g for 10 min at 2 to 8 °C) within one hour of collection. The assays used a Sciex API 4000 detector and nifedipine as an internal standard. The calibration ranges for NP-G2-044 were from 5.00 to 5000 ng/mL.

[3] = system: KARPAS 299 lymphoma cells; assay: Cell growth sensitivity, KARPAS 299; type: cell-based
in vivo = settings: mouse, plasma
Procedure: The PK parameters of NP-G2-044 were assessed following a single intravenous (IV) and single oral (PO) gavage dose administration to mice. Blood samples were collected pre-dose, and 3, 10, 30 min, 1, 1.5, 3, 6, 9, 24, 32, or 48 h after dosing. The plasma samples were then extracted and the concentrations of NP-G2-044 were determined by LC-MS/MS.
The concentrations of NP-G2-044 in plasma were determined using high performance liquid chromatography with tandem mass spectrometry (LC-MS/MS). All blood samples were transferred into a commercial tube containing potassium (K2) EDTA (ethylene diaminetetraacetic acid) and were processed for plasma. Samples were centrifuged (3000× g for 10 min at 2 to 8 °C) within one hour of collection. The assays used a Sciex API 4000 detector and nifedipine as an internal standard. The calibration ranges for NP-G2-044 were from 5.00 to 5000 ng/mL. The plasma concentration of NP-G2-044 in mice was subjected to a non-compartmental pharmacokinetic analysis by using the Phoenix WinNonlin software (version 6.3, Pharsight, Mountain View, CA, USA). The nominal dose levels and nominal sampling times were used in the calculation of all pharmacokinetic parameters. The linear/log trapezoidal rule was applied in obtaining the PK parameters.

U2932 cells = assay: Cell growth assay, U2932; settings: U2932 cells in culture, 4 days
Procedure: We then extended our search to other types of lymphoma cells. […] Both U2932 and Ly10 cells are ABC-subtype DLBCLs, and HT cells are diffuse mixed lymphoma.
For NP-G2-044 dose-dependent studies, 1 × 10^5 Ly10, U2932, or HT cells were seeded in a 12- or 24-well plate on day 0. A total of 1, 3, 10, 30, or 100 μM NP-G2-044 or control solvent was added to the plates. Cells were collected and counted on day 4. For time-dependent studies, 1 × 10^5 Ly10, U2932, or HT cells were seeded in a 12- or 24-well plate on day 0. A total of 30 μM NP-G2-044, 5 μM LY2409881, 30 μM NP-G2-044 plus 5 μM LY2409881, or control solvent was added to the plates. Cells were collected and counted on Days 2 and 4. […] The cell growth index was expressed as the fold changes of cell numbers over the starting cell number. For these assays, the old medium was changed with a fresh medium containing the control solvent or the inhibitors every two days.

In the case of `Cc1occc1C(=O)Nc1nn(Cc2ccc(C(F)(F)F)cc2)c2ccccc12` [NP-G2-044], the “inhibition of lung metastasis” value ([1]; 30 mg/kg twice a day) is reported as “almost complete inhibition”, the “inhibition of lung metastasis” value ([1]; 300 mg/kg once a day) is reported as “almost complete inhibition” and the “IC50, metastasized 4T1 cells in the lungs” value ([1]; once a day) is reported as 40 mg/kg. For the same compound, the “IC50, metastasized 4T1 cells in the lungs” value ([1]; twice a day) was 5 mg/kg, the “tolerability of dosage regimen” value ([1]; mouse, in vivo) was “well tolerated with no signs of overt toxicity” and the “number of growing colonies” value (Ly10 cells) was “decreased the number of growing colonies”. For the same compound, the “number of growing colonies” value (HT cells) was “decreased the number of growing colonies”, the stability [2] was “stable” and the growth sensitivity [3] was “insensitive”. It also gave an AUC(0-inf) (in vivo; iv, 20 mg/kg) of 7290 ± 1850 ng·h/mL, an AUC(0-t) (in vivo; iv, 20 mg/kg) of 7150 ± 1750 ng·h/mL and a C0 (in vivo; iv, 20 mg/kg) of 11300 ± 3840 ng/mL. The MRT inf (in vivo; iv, 20 mg/kg) was 3.34 ± 0.68 h, the MRT last (in vivo; iv, 20 mg/kg) was 2.81 ± 0.36 h and the Vd (in vivo; iv, 20 mg/kg) was 9.3 L/kg. The clearance (in vivo; iv, 20 mg/kg) was 48 ± 13.4 mL/min/kg, the half-life (in vivo; iv, 20 mg/kg) was 5.45 ± 1.58 h and the Tmax (in vivo; po) was 0.8 to 6 h. For the same compound, the AUC(0-inf) (in vivo; po, 20 mg/kg) was 2570 ± 568 ng·h/mL, the AUC(0-t) (in vivo; po, 20 mg/kg) was 2550 ± 575 ng·h/mL and the Cmax (in vivo; po, 20 mg/kg) was 541 ± 176 ng/mL. The MRT inf (in vivo; po, 20 mg/kg) was 6.46 ± 1.44 h, the MRT last (in vivo; po, 20 mg/kg) was 6.16 ± 1.36 h and the Tmax (in vivo; po, 20 mg/kg) was 0.83 ± 0.58 h. The bioavailability (in vivo; po, 20 mg/kg) was 35.3%, the half-life (in vivo; po, 20 mg/kg) was 4.36 ± 0.46 h and the AUC(0-inf) (in vivo; po, 50 mg/kg) was 6210 ± 1650 ng·h/mL. For the same compound, the AUC(0-t) (in vivo; po, 50 mg/kg) was 6190 ± 1650 ng·h/mL, the Cmax (in vivo; po, 50 mg/kg) was 678 ± 258 ng/mL and the MRT inf (in vivo; po, 50 mg/kg) was 7.54 ± 0.85 h. It also gave an MRT last (in vivo; po, 50 mg/kg) of 7.4 ± 0.75 h, a Tmax (in vivo; po, 50 mg/kg) of 4.17 ± 3.18 h and a bioavailability (in vivo; po, 50 mg/kg) of 34.1%. It also gave a half-life (in vivo; po, 50 mg/kg) of 3.58 ± 0.43 h, an AUC(0-inf) (in vivo; po, 100 mg/kg) of 14300 ± 2390 ng·h/mL and an AUC(0-t) (in vivo; po, 100 mg/kg) of 14300 ± 2400 ng·h/mL. It also gave a Cmax (in vivo; po, 100 mg/kg) of 1450 ± 157 ng/mL, an MRT inf (in vivo; po, 100 mg/kg) of 8.4 ± 0.41 h and an MRT last (in vivo; po, 100 mg/kg) of 8.33 ± 0.38 h. It also gave a Tmax (in vivo; po, 100 mg/kg) of 6 ± 3 h, a bioavailability (in vivo; po, 100 mg/kg) of 39.2% and a half-life (in vivo; po, 100 mg/kg) of 4.39 ± 1.56 h. For the same compound, the “effect on cell growth” value (U2932 cells) was “inhibitory effect”.
